Assay results reported in patent US20250129102A1, “CRYSTAL FORM OF PYRIMIDINE HETEROCYCLIC COMPOUND AND PREPARATION METHOD THEREFOR” (D3 Bio (Wuxi) Co., Ltd., priority 2021, published 2025).

Assays:
Type in all cases: in vitro ADME
[1] = Protein binding rate in plasma by equilibrium dialysis, SD rats
Protocol: Protein binding rate of the assay compound in plasma of CD-1 mice, SD rats, beagle dogs, cynomolgus monkeys and human was determined by equilibrium dialysis.
Plasma samples with a compound concentration of 2 μM were prepared using plasma of the above five species, placed in a 96-well equilibrium dialysis device, and dialyzed with phosphate buffer solution at 37±1° C. for 4 hours. Warfarin was used as the control compound in this assay. The concentrations of the assay compound in plasma and dialysis buffer were determined by LC-MS/MS method.

[2] = Stability in whole blood, CD-1 mice; conditions: CD-1 mice whole blood, 5 μM, 37° C.
Protocol: Stabilities of the assay compound in whole blood of CD-1 mice, SD rats, beagle dogs and cynomolgus monkeys were assayed, respectively. On the day of the assay or the day before the assay, fresh whole blood from CD-1 mice, SD rats, beagle dogs, and cynomolgus monkeys was collected using anticoagulant EDTA-K2. Prior to the start of the assay, the whole blood was mixed with PBS in 1:1 (v: v) and the mixture was preheated in a 37° C. water bath for 10 to 20 minutes. 96-well incubation plates were prepared and named T0, T30, T60, […], respectively. In the corresponding incubation plates, including T0, T30, T60 and […] incubation plates, 2 μL of working solutions of the compound or the control compound were mixed with 98 μL of blank whole blood of mice, rats, canines, monkeys and human in duplicate. All samples were incubated in a 37° C. water bath. The final incubation concentration of the compound was 5 μM and the final incubation concentration of the control compound was 2 μM. At the end of incubation for each time point, the corresponding incubation plate was removed and 100 μL of ultrapure water was immediately added to the corresponding sample wells, and mixed well. 800 μL of a solution of 200 ng/mL tolbutamide and labetalol in acetonitrile was added to precipitate the protein. […] 150 μL of supernatant was taken out and analyzed by LC/MS/MS.

[3] = In vitro stability in liver microsomes, CD-1 mice; conditions: mouse, CD-1 mice liver microsomes, 0.5 mg/mL
Protocol: Metabolic stabilities of the assay compound in liver microsomes of CD-1 mice, SD rats, beagle dogs, cynomolgus monkeys, and human were assayed, respectively.
Two 96-well incubation plates were prepared and named T60 incubation plate and NCF60 incubation plate, respectively. 445 μL of microsomal working solutions (liver microsomal protein concentration of 0.56 mg/mL) were added to the T60 incubation plate and the NCF60 incubation plate, respectively, and then the above incubation plates were pre-incubated in a 37° C. water bath for about 10 minutes.
After the pre-incubation, 5 μL of working solutions of the assay sample or the control compound were added to the T60 incubation plate and the NCF60 incubation plate, respectively, and the mixture was mixed well. 50 μL of potassium phosphate buffer was added to each well of the NCF60 incubation plate to initiate the reaction. 180 μL of stop solution (200 ng/mL tolbutamide and 200 ng/mL labetalol in acetonitrile) and 6 uL of NADPH regeneration system working solution were added to the T0 stop plate, and 54 μL of sample was transferred from T60 incubation plate to T0 stop plate (generation of T0 sample). The reaction was initiated by adding 44 μL of NADPH regeneration system working solution to each well of the T60 incubation plate. Only 54 μL of microsome working solution, 6 uL of NADPH regeneration system working solution and 180 μL of stop solution were added to the Blank plate. Therefore, in samples of the assay compound or the control compound, the final reaction concentration of compound, testosterone, diclofenac and propafenone was 1 μM, the concentration of liver microsomes was 0.5 mg/mL, and the final reaction concentrations of DMSO and acetonitrile in the reaction system were 0.01% (v/v) and 0.99% (v/v), respectively. […] All samples were injected and analyzed by liquid chromatography-tandem mass spectrometry.

[4] = Metabolic stability in hepatocytes, CD-1 mice; conditions: mouse, cryopreserved hepatocytes, CD-1 mice hepatocytes
Protocol: Metabolic stabilities of assay compound in hepatocytes of CD-1 mice, SD rats, beagle dogs, cynomolgus monkeys, and human were assayed, respectively.
Several 96-well sample precipitation plates were prepared and named T0, T15, T30, T60, T90, T120, T0-MC, T120-MC and blank substrates, respectively. The recovery medium and incubation medium were taken out in advance and placed in a 37° C. water bath for pre-heating. Cryopreserved hepatocytes were removed from the liquid nitrogen tank and immediately immersed in a 37° C. water bath (approximately 90 seconds). After the cryopreserved hepatocytes had thawed and loosened, they were poured into a centrifuge tube containing 40 mL of recovery medium, and the tube was gently inverted to allow the cells to be resuspended in the recovery medium. The cells were centrifuged at 100×g at room temperature for 5 min, and the supernatant was removed. The hepatocytes were resuspended in an appropriate volume of incubation medium, and the cell viability was calculated by Trypan Blue staining method. 198 μL of hepatocyte suspension (0.51×10^6 cells/mL) was added to the preheated incubation plate. For the culture medium control group, 198 μL of hepatocyte-free incubation medium was added to T0-MC and T120-MC incubation plate. All incubation plates were pre-incubated in a 37° C. incubator for 10 minutes. Then 2 μL of working solutions of the assay sample and the control compound were added, respectively, and the mixture was mixed well. The incubation plate was immediately put into the shaker in the incubator, and the reaction was initiated while starting the timer. For each time point of each compound, 2 duplicate samples were prepared. The incubation conditions were 37° C., saturated humidity, and 5% CO2. […] All samples were mixed well and analyzed by LC/MS/MS.

Question: For `C=C(F)C(=O)N1CCN(c2nc(OC[C@@]34CCCN3C[C@H](F)C4)nc3c2CO[C@H](c2c(F)c(N)cc(C)c2C(F)(F)F)C3)C[C@@H]1CC#N` [Compound of formula (I)], which “Protein unbound rate (%)” value ([1]; SD rats plasma, 2 μM, equilibrium dialysis 4 hours) is on record?
Answer: Its value is 4.8%.

Question: And the fraction unbound at 4 h, 2 μM ([1]; plasma, value used in the SD rat PK table, read-out: Plasma protein unbound rate PPB (Unbound %))?
Answer: Its fraction unbound at 4 h, 2 μM is 0.048.

Question: And the “Detection of assay compound content within 240 min” value [2]?
Answer: The value was 117%.

Question: And the CLint scaled at 1 μM [3]?
Answer: The CLint scaled at 1 μM was 1130 mL/min/kg.

Question: And the half-life at 1 μM [3]?
Answer: Its half-life at 1 μM is 4.9 min.

Question: What about the microsomal CLint at 1 μM ([3]; read-out: CLint(hep)) of the same compound?
Answer: Its microsomal CLint at 1 μM is 285 µL/min/mg.

Question: And the half-life at 1 μM [4]?
Answer: Its half-life at 1 μM is 9.5 min.

Question: What about the hepatocyte CLint at 1 μM ([4]; read-out: CLint(hep)) of the same compound?
Answer: The hepatocyte CLint at 1 μM was 146 µL/min/1e6 cells.

Question: What about the CLint scaled at 1 μM ([4]; read-out: CLint(liver)) of the same compound?
Answer: Its CLint scaled at 1 μM is 1740 mL/min/kg.
